Experimental data reported in ChEMBL document CHEMBL4813943, “Hybrids of Small-Molecule CD4 Mimics with Polyethylene Glycol Units as HIV Entry Inhibitors” (J Med Chem, 2021).

Assays:
[1] = system: Simian immunodeficiency virus; test: Potentiation of KD-247-induced viral neutralizing activity against SHIV KS2661 infected in human TZM-bl cells assessed as fold reduction in KD-247 IC50 for viral neutralization at 10 uM measured after 48 hrs by luciferase assay relative to KD-247; assay type: functional
[2] = Cytotoxicity against human TZM-bl cells assessed as reduction in cell viability by Cell Titer-Glo assay; assay type: cell-based
[3] = Stability of the compound assessed as drug degradation at 10 umol measured after 25 mins by HPLC analysis; assay type: physicochemical; conditions: at 10 µmol, read-out: Drug degradation
[4] = Stability of the compound assessed as drug degradation at 10 umol measured after 5 mins by HPLC analysis; assay type: physicochemical; conditions: at 10 µmol, read-out: Drug degradation
[5] = Stability of the compound assessed as drug degradation at 10 umol measured after 1 mins by HPLC analysis; assay type: physicochemical; conditions: at 10 µmol, read-out: Drug degradation
[6] = Acute toxicity in iv dosed rhesus monkey assessed as maximum tolerated dose; assay type: organism-based, Macaca mulatta; conditions: in vivo
[7] = Acute toxicity in rhesus monkey assessed as decrease in blood oxygen level at 24 mg/kg, iv measured within 15 mins; assay type: organism-based, Macaca mulatta; conditions: in vivo, 0.25 h
[8] = Acute toxicity in rhesus monkey assessed as increase in pulse rate at 24 mg/kg, iv measured within 15 mins; assay type: organism-based, Macaca mulatta; conditions: in vivo, 0.25 h
[9] = Half life in rhesus monkey at 24 mg/kg, iv measured upto 6 hrs by HPLC analysis; assay type: ADME, organism-based, Macaca mulatta; conditions: in vivo
[10] = Volume of distribution in rhesus monkey at 24 mg/kg, iv measured upto 6 hrs by HPLC analysis; assay type: ADME, organism-based, Macaca mulatta; conditions: in vivo
[11] = Acute toxicity in rhesus monkey assessed as effect on pulse rate at 24 mg/kg, iv measured after 24 hrs; assay type: organism-based, Macaca mulatta; conditions: in vivo
[12] = Acute toxicity in rhesus monkey assessed as effect on blood oxygen levels at 24 mg/kg, iv measured after 24 hrs; assay type: organism-based, Macaca mulatta; conditions: in vivo
[13] = Acute toxicity in rhesus monkey assessed as animal survival at 24 mg/kg, iv measured after 24 hrs; assay type: organism-based, Macaca mulatta; conditions: in vivo
[14] = Initial drug concentration in rhesus monkey blood at 24 mg/kg, iv measured upto 6 hrs by HPLC analysis; assay type: ADME, organism-based, Macaca mulatta
[15] = Half life in rhesus monkey at 9 mg, IM measured upto 48.1 hrs by HPLC analysis; assay type: ADME, Macaca mulatta; conditions: in vivo
[16] = Toxicity in rhesus monkey assessed as effect on body motion at 33.2 mg, iv measured within 25 mins; assay type: organism-based, Macaca mulatta; conditions: in vivo
[17] = Half life in rhesus monkey at 18 mg, IM measured upto 48.1 hrs by HPLC analysis; assay type: ADME, Macaca mulatta; conditions: in vivo
[18] = Half life in rhesus monkey at 36 mg, IM measured upto 48.1 hrs by HPLC analysis; assay type: ADME, Macaca mulatta; conditions: in vivo
[19] = Cmax in rhesus monkey at 18 mg, IM measured upto 48.1 hrs by HPLC analysis; assay type: ADME, Macaca mulatta; design: route intramuscular, dose 18 mg, time <=48.1; conditions: in vivo
[20] = Cmax in rhesus monkey at 36 mg, IM measured upto 48.1 hrs by HPLC analysis; assay type: ADME, Macaca mulatta; design: route intramuscular, dose 36 mg, time <=48.1; conditions: in vivo
[21] = Cmax in rhesus monkey at 9 mg, IM measured upto 48.1 hrs by HPLC analysis; assay type: ADME, Macaca mulatta; design: route intramuscular, dose 9 mg, time <=48.1; conditions: in vivo
[22] = Volume of distribution in rhesus monkey at 33.2 mg, IV measured upto 72 hrs by HPLC analysis; assay type: ADME, Macaca mulatta; conditions: in vivo
[23] = Cmax in rhesus monkey at 33.2 mg, iv measured upto 72 hrs by HPLC analysis; assay type: ADME, organism-based, Macaca mulatta; design: route intravenous, dose 33.2 mg, time <=72; conditions: in vivo
[24] = Volume of distribution in rhesus monkey at 9 mg, IM measured upto 48.1 hrs by HPLC analysis; assay type: ADME, Macaca mulatta; conditions: in vivo
[25] = Half life in rhesus monkey at 33.2 mg, iv measured upto 72 hrs by HPLC analysis; assay type: ADME, organism-based, Macaca mulatta; conditions: in vivo
[26] = Volume of distribution in rhesus monkey at 36 mg, IM measured upto 48.1 hrs by HPLC analysis; assay type: ADME, Macaca mulatta; conditions: in vivo
[27] = Volume of distribution in rhesus monkey at 18 mg, IM measured upto 48.1 hrs by HPLC analysis; assay type: ADME, Macaca mulatta; conditions: in vivo
[28] = Toxicity in rhesus monkey assessed as increase in pulse rate at 33.2 mg, iv measured within 25 mins; assay type: organism-based, Macaca mulatta; conditions: in vivo
[29] = Half life of the compound by HPLC analysis; assay type: physicochemical
[30] = molecular target: Envelope glycoprotein gp160 (Human immunodeficiency virus 1) (UniProt Q6QLK5); test: Inhibition of HIV1 KP-5mvcR gp120 interaction with CD4 in human TZM-bl cells assessed as decrease in viral entry at 0.1 uM by […] assay relative to control; assay type: cell-based
Chain of Envelope glycoprotein gp160 (Human immunodeficiency virus 1) (Q6QLK5 1-814): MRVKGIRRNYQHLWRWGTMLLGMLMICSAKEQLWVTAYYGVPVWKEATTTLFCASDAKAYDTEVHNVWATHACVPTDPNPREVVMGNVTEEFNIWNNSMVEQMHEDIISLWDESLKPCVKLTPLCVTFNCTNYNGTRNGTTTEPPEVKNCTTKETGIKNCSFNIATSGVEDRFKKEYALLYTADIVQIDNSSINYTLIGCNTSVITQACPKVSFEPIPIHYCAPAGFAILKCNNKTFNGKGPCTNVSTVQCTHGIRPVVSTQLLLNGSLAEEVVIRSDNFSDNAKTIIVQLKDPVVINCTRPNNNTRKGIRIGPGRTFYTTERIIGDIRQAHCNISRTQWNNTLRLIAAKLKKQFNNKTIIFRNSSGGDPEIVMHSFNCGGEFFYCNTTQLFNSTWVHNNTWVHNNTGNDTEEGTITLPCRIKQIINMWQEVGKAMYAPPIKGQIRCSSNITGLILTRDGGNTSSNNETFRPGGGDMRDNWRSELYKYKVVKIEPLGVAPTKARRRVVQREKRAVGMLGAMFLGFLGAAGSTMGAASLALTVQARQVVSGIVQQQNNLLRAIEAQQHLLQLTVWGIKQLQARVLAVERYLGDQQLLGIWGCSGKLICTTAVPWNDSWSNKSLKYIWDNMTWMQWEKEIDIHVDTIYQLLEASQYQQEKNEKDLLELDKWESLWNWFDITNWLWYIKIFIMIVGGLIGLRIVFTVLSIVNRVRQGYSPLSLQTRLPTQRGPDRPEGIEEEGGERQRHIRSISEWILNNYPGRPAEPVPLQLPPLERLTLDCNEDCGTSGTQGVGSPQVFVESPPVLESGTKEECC

**Q.** With COCCOCCOCCOCCOCCOCCOCCOCCOCCOCCOCCOCCNC(=O)CCC(=O)N[C@@H](CCCNC(=N)N)C(=O)NCCN1CCC(NC(=O)C(=O)Nc2ccc(Cl)cc2)CC12CCCCC2 (some centres undefined) [listing 1 of 2 here] as the compound, how does the “fold change (FC)” value [1] read?
**A.** 20

**Q.** What about the CC50 [2] of the same compound?
**A.** > 100 µM

**Q.** Which CC50 [2] does the source give for CC1(C)CC(NC(=O)C(=O)Nc2ccc(Cl)cc2)CC(C)(C)N1 here?
**A.** 132 µM

**Q.** What does the source list for COCCOCCOCCOCCOCCNC(=O)CCC(=O)OC(CCCNC(=N)N)C(=O)NCCN1CCC(NC(=O)C(=O)Nc2ccc(Cl)cc2)CC12CCCCC2 (centres undefined) [listing 1 of 2 here]?
**A.** degraded at 25 min, 10 umol [3]: 20%; degraded at 5 min, 10 umol [4]: 0%; degraded at 1 min, 10 umol [5]: 0%

**Q.** Which CC50 [2] does the source give for CCCCCCCCCCCCCCCCNC(=O)CCC(=O)OC(CCCN)C(=O)NCCN1CCC(NC(=O)C(=O)Nc2ccc(Cl)cc2)CC12CCCCC2 (centres undefined) here?
**A.** 5.7 µM

**Q.** With CCCCCCCCCCCCCCCCNC(=O)CCC(=O)OC(CCCNC(=N)N)C(=O)NCCN1CCC(NC(=O)C(=O)Nc2ccc(Cl)cc2)CC12CCCCC2 (centres undefined) as the compound, how does the CC50 [2] read?
**A.** 17 µM

**Q.** For N=C(N)NCCCCC(=O)NCCN1CCC(NC(=O)C(=O)Nc2ccc(Cl)cc2)CC12CCCCC2.O=C(O)C(F)(F)F.O=C(O)C(F)(F)F (centres undefined), which MTD [6] is on record?
**A.** 24 mg/kg

**Q.** And the Activity [7]?
**A.** Toxic

**Q.** And the Activity [8]?
**A.** Toxic

**Q.** And the half-life [9]?
**A.** 31 min

**Q.** And the Vd [10]?
**A.** 10.8 L

**Q.** What about the Activity [11] of the same compound?
**A.** Non-Toxic

**Q.** What about the Activity [12] of the same compound?
**A.** Non-Toxic

**Q.** What about the Activity [13] of the same compound?
**A.** Non-Toxic

**Q.** And the C0 at 6 h [14]?
**A.** 23.3 µM

**Q.** Which half-life [15] does the source give for COCCOCCOCCOCCOCCOCCOCCOCCOCCOCCOCCOCCNC(=O)CCC(=O)N[C@@H](CCCNC(=N)N)C(=O)NCCN1CCC(NC(=O)C(=O)Nc2ccc(Cl)cc2)CC12CCCCC2.O=C(O)C(F)(F)F.O=C(O)C(F)(F)F (some centres undefined) here?
**A.** 47.6 min

**Q.** And the MTD [6]?
**A.** 3.78 mg/kg

**Q.** What about the Activity [16] of the same compound?
**A.** Toxic

**Q.** What about the half-life [17] of the same compound?
**A.** 58.9 min

**Q.** And the half-life [18]?
**A.** 86.4 min

**Q.** And the Cmax [19]?
**A.** 59.4 µM

**Q.** And the Cmax [20]?
**A.** 128 µM

**Q.** What about the Cmax [21] of the same compound?
**A.** 56.4 µM

**Q.** What about the Vd [22] of the same compound?
**A.** 592 mL

**Q.** What about the Cmax [23] of the same compound?
**A.** 39.5 µM

**Q.** What about the Vd [24] of the same compound?
**A.** 114 mL

**Q.** What about the t1/2 [25] of the same compound?
**A.** 107.4 min

**Q.** And the Vd [26]?
**A.** 200 mL

**Q.** What about the Vd [27] of the same compound?
**A.** 215 mL

**Q.** What about the Activity [28] of the same compound?
**A.** Toxic

**Q.** With N=C(N)NCC(=O)NCCCC[C@H](NC(=N)N)C(=O)NCCN1CCC(NC(=O)C(=O)Nc2ccc(Cl)cc2)CC12CCCCC2 (some centres undefined) as the compound, how does the CC50 [2] read?
**A.** 42 µM

**Q.** For N=C(N)NCCCCCCCC(=O)NCCCC[C@H](NC(=N)N)C(=O)NCCN1CCC(NC(=O)C(=O)Nc2ccc(Cl)cc2)CC12CCCCC2 (some centres undefined), which CC50 [2] is on record?
**A.** 44 µM

**Q.** For N=C(N)NCCCCCCCCCCC(=O)NCCN1CCC(NC(=O)C(=O)Nc2ccc(Cl)cc2)CC12CCCCC2 (centres undefined), which CC50 [2] is on record?
**A.** 1.1 µM

**Q.** For COCCOCCOCCOCCOCCNC(=O)CCC(=O)OC(CCCNC(=N)N)C(=O)NCCN1CCC(NC(=O)C(=O)Nc2ccc(Cl)cc2)CC12CCCCC2 (centres undefined) [listing 2 of 2 here], which half-life [29] is on record?
**A.** 126 min

**Q.** And the CC50 [2]?
**A.** 109 µM

**Q.** With N=C(N)NCCCCCCCC(=O)NCCN1CCC(NC(=O)C(=O)Nc2ccc(Cl)cc2)CC12CCCCC2 (centres undefined) as the compound, how does the CC50 [2] read?
**A.** > 300 µM

**Q.** With CCCCCCCCCCCCCCCCNC(=O)CCC(=O)OC(CCCNS(=O)(=O)c1ccc([N+](=O)[O-])cc1)C(=O)NCCN1CCC(NC(=O)C(=O)Nc2ccc(Cl)cc2)CC12CCCCC2 (centres undefined) as the compound, how does the CC50 [2] read?
**A.** > 300 µM

**Q.** For COCCOCCOCCOCCOCCNC(=O)CCC(=O)OC(CCCNS(=O)(=O)c1ccc([N+](=O)[O-])cc1)C(=O)NCCN1CCC(NC(=O)C(=O)Nc2ccc(Cl)cc2)CC12CCCCC2 (centres undefined), which CC50 [2] is on record?
**A.** 174 µM

**Q.** Which CC50 [2] does the source give for COCCOCCOCCOCCOCCNC(=O)CCC(=O)OC(CCCN)C(=O)NCCN1CCC(NC(=O)C(=O)Nc2ccc(Cl)cc2)CC12CCCCC2 (centres undefined) here?
**A.** 81 µM

**Q.** With COCCOCCOCCOCCOCCOCCOCCOCCOCCOCCOCCOCCOCCOCCOCCOCCOCCOCCOCCOCCOCCOCCOCCOCCNC(=O)CCC(=O)N[C@@H](CCCNC(=N)N)C(=O)NCCN1CCC(NC(=O)C(=O)Nc2ccc(Cl)cc2)CC12CCCCC2 (some centres undefined) as the compound, how does the inhibition [30] read?
**A.** 65%

**Q.** What about the CC50 [2] of the same compound?
**A.** 40 µM

**Q.** Which CC50 [2] does the source give for N=C(N)NCCCC[C@H](NC(=N)N)C(=O)NCCN1CCC(NC(=O)C(=O)Nc2ccc(Cl)cc2)CC12CCCCC2 (some centres undefined) here?
**A.** 46 µM

**Q.** With COCCOCCOCCOCCOCCOCCOCCOCCOCCOCCOCCOCCNC(=O)CCC(=O)N[C@@H](CCCNC(=N)N)C(=O)NCCN1CCC(NC(=O)C(=O)Nc2ccc(Cl)cc2)CC12CCCCC2 (some centres undefined) [listing 2 of 2 here] as the compound, how does the inhibition [30] read?
**A.** 50%

**Q.** For N=C(N)NCCCCC(=O)NCCN1CCC(NC(=O)C(=O)Nc2ccc(Cl)cc2)CC12CCCCC2 (centres undefined), which CC50 [2] is on record?
**A.** 65 µM

**Q.** For N=C(N)NCCCCC(=O)NCCCC[C@H](NC(=N)N)C(=O)NCCN1CCC(NC(=O)C(=O)Nc2ccc(Cl)cc2)CC12CCCCC2 (some centres undefined), which CC50 [2] is on record?
**A.** 62 µM

**Q.** For COCCOCCOCCOCCOCCNC(=O)CCC(=O)N[C@@H](CCCNC(=N)N)C(=O)NCCN1CCC(NC(=O)C(=O)Nc2ccc(Cl)cc2)CC12CCCCC2 (some centres undefined), which CC50 [2] is on record?
**A.** > 100 µM

**Q.** With N=C(N)NCCCCCCCCCCC(=O)NCCCC[C@H](NC(=N)N)C(=O)NCCN1CCC(NC(=O)C(=O)Nc2ccc(Cl)cc2)CC12CCCCC2 (some centres undefined) as the compound, how does the CC50 [2] read?
**A.** 15 µM
